Measured values published in patent publication US10745382B2 (BRISTOL-MYERS SQUIBB COMPANY, priority 2015, dated 2020).
Where two headings read alike, the source gives them in different places.

Biological target: T1, PD-1/PD-L1 (Homo sapiens, UniProt Q9NZQ7)
T1 construct: made in house; host or cells: HEK293T
Assay: PD-1/PD-L1 Homogenous Time-Resolved Fluorescence (HTRF) binding assay
Settings: PD-L1-His 10 nM, PD-1-Ig 20 nM, read-out: Range or IC50
Summary of the method: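 Binding measured in dPBS with 0.1% BSA and 0.05% Tween-20, detected by HTRF with europium cryptate anti-Ig (1 nM final) and APC anti-His (20 nM final) added over the binding reaction. Counter-assays used human PD-1-Ig/PD-L2-His (20 and 5 nM) and CD80-His/PD-L1-Ig (100 and 10 nM).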

T1 sequence (Q9NZQ7 with tags, fused parts or gaps): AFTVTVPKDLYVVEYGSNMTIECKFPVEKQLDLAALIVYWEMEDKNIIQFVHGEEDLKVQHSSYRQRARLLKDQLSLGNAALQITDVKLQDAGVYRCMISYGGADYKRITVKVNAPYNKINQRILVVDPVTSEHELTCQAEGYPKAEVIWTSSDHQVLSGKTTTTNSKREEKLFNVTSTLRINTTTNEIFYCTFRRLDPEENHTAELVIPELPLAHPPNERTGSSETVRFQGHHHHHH

SMILES | IC50 (value given as range class) [nM] | IC50 (numeric IC50) [nM]
Cc1c(COc2cc(OCc3cncc(C#N)c3)c(CNC(C)(CO)CO)cc2Cl)cccc1-c1cccc(OCCCNC(=O)C(O)CO)c1Cl (stereo not drawn) [Example 2088, N-(3-((2-chloro-3′-((2-chloro-5-((5-cyanopyridin-3-yl)methoxy)-4-(((1,3-dihydroxy-2-methylpropan-2-yl)amino)methyl)phenoxy)methyl)-2′-methyl-[1,1′-biphenyl]-3-yl)oxy)propyl)-2,3-dihydroxypropanamide] | 0.21 to 10 | 
Cc1c(COc2cc(OCc3cncc(C#N)c3)c(CNC(C)(CO)CO)cc2Cl)cccc1-c1cccc(OCCCNC(=O)Cc2ccccn2)c1Cl [Example 2089, N-(3-((2-chloro-3′-((2-chloro-5-((5-cyanopyridin-3-yl)methoxy)-4-(((1,3-dihydroxy-2-methylpropan-2-yl)amino)methyl)phenoxy)methyl)-2′-methyl-[1,1′-biphenyl]-3-yl)oxy)propyl)-2-(pyridin-2-yl)acetamide] | 0.21 to 10 | 
Cc1c(COc2cc(OCc3cncc(C#N)c3)c(CNC(C)(CO)CO)cc2Cl)cccc1-c1cccc(CNCCN2CCOCC2)c1Cl [Example 2092, 5-((4-chloro-5-((2′-chloro-2-methyl-3′-(((2-morpholinoethyl)amino)methyl)-[1,1′-biphenyl]-3-yl)methoxy)-2-(((1,3-dihydroxy-2-methylpropan-2-yl)amino)methyl)phenoxy)methyl)nicotinonitrile] | 0.21 to 10 | 
Cc1c(OCCCN2CC[C@@H](O)C2)cccc1-c1c(Cl)ccc(COc2cc(OCc3cncc(C#N)c3)c(CNC(C)(CO)CO)cc2Cl)c1Cl [Example 2093, 5-((4-chloro-5-((2,6-dichloro-3′-(3-((R)-3-hydroxypyrrolidin-1-yl)propoxy)-2′-methyl-[1,1′-biphenyl]-3-yl)methoxy)-2-(((1,3-dihydroxy-2-methylpropan-2-yl)amino)methyl)phenoxy)methyl)nicotinonitrile] | 0.21 to 10 | 
CC(=O)N[C@H]1CCN(CCCOc2cccc(-c3c(Cl)ccc(COc4cc(OCc5cncc(C#N)c5)c(CNC(C)(CO)CO)cc4Cl)c3Cl)c2C)C1 [Example 2094, N-((3S)-1-(3-((2′,6′-dichloro-3′-((2-chloro-5-((5-cyanopyridin-3-yl)methoxy)-4-(((1,3-dihydroxy-2-methylpropan-2-yl)amino)methyl)phenoxy)methyl)-2-methyl-[1,1′-biphenyl]-3-yl)oxy)propyl)pyrrolidin-3-yl)acetamide] |  | 6
Cc1c(COc2cc(OCc3cncc(C#N)c3)c(CNC(C)(CO)CO)cc2Cl)cccc1-c1cccc(OCCCN2CCCC(CO)C2)c1Cl (stereo not drawn) [Example 2098, 5-((4-chloro-5-((2′-chloro-3′-(3-(3-(hydroxymethyl)piperidin-1-yl)propoxy)-2-methyl-[1,1′-biphenyl]-3-yl)methoxy)-2-(((1,3-dihydroxy-2-methylpropan-2-yl)amino)methyl)phenoxy)methyl)nicotinonitrile] | 0.21 to 10 | 
Cc1c(COc2cc(OCc3cncc(C(=N)N4CCCC(CO)C4)c3)c(CNC(C)(CO)CO)cc2Cl)cccc1-c1cccc(OCCCN2CCCC(CO)C2)c1Cl (stereo not drawn) [Example 2099, 2-((5-chloro-4-((2′-chloro-3′-(3-(3-(hydroxymethyl)piperidin-1-yl)propoxy)-2-methyl-[1,1′-biphenyl]-3-yl)methoxy)-2-((5-((3-(hydroxymethyl)piperidin-1-yl)(imino)methyl)pyridin-3-yl)methoxy)benzyl)amino)-2-methylpropane-1,3-diol] | 0.21 to 10 | 
N=C(c1cncc(COc2cc(OCc3cccc(-c4cccc(OCCCN5CC[C@@H](O)C5)c4Cl)c3Cl)c(Cl)cc2CNC[C@H](O)CO)c1)N1CC[C@@H](O)C1 [Example 2101, (S)-3-((5-chloro-4-((2,2′-dichloro-3′-(3-((R)-3-hydroxypyrrolidin-1-yl)propoxy)-[1,1′-biphenyl]-3-yl)methoxy)-2-((5-(((R)-3-hydroxypyrrolidin-1-yl)(imino)methyl)pyridin-3-yl)methoxy)benzyl)amino)propane-1,2-diol] | 0.21 to 10 | 
Cc1c(COc2cc(OCc3cncc(C(=N)N4CC[C@@H](O)C4)c3)c(CNC(C)(CO)CO)cc2Cl)cccc1-c1cccc(OCCCN2CC[C@@H](O)C2)c1Cl [Example 2105, 2-((5-chloro-4-((2′-chloro-3′-(3-((R)-3-hydroxypyrrolidin-1-yl)propoxy)-2-methyl-[1,1′-biphenyl]-3-yl)methoxy)-2-((5-(((R)-3-hydroxypyrrolidin-1-yl)(imino)methyl)pyridin-3-yl)methoxy)benzyl)amino)-2-methylpropane-1,3-diol] | 0.21 to 10 | 

More lines, now with the values ahead:

IC50 (value given as range class) [nM] | IC50 (numeric IC50) [nM] | SMILES
100 to 2000 |  | Cc1c(COc2cc(OCc3cncc(C#N)c3)c(CN3CCCC[C@H]3C(=O)O)cc2Cl)cccc1-c1cccc(OCC(CO)(CO)CO)c1Cl [Example 2084, (S)-1-(5-chloro-4-((2′-chloro-3′-(3-hydroxy-2,2-bis(hydroxymethyl)propoxy)-2-methyl-[1,1′-biphenyl]-3-yl)methoxy)-2-((5-cyanopyridin-3-yl)methoxy)benzyl)piperidine-2-carboxylic Acid]
0.21 to 10 |  | Cc1c(COc2cc(OCc3cncc(C#N)c3)c(CNC(C)(CO)CO)cc2Cl)cccc1-c1cccc(OCC(CO)(CO)CO)c1Cl [Example 2085, 5-((4-chloro-5-((2′-chloro-3′-(3-hydroxy-2,2-bis(hydroxymethyl)propoxy)-2-methyl-[1,1′-biphenyl]-3-yl)methoxy)-2-(((1,3-dihydroxy-2-methylpropan-2-yl)amino)methyl)phenoxy)methyl)nicotinonitrile]
0.21 to 10 |  | Cc1c(COc2cc(OCc3cncc(C#N)c3)c(CNC(C)(CO)CO)cc2Cl)cccc1-c1cccc(OCC(O)CN2CC[C@@H](O)C2)c1Cl (stereo partly drawn) [Example 2086, 5-((4-chloro-5-((2′-chloro-3′-(2-hydroxy-3-((R)-3-hydroxypyrrolidin-1-yl)propoxy)-2-methyl-[1,1′-biphenyl]-3-yl)methoxy)-2-(((1,3-dihydroxy-2-methylpropan-2-yl)amino)methyl)phenoxy)methyl)nicotinonitrile]
0.21 to 10 |  | Cc1c(COc2cc(OCc3cncc(C#N)c3)c(CNC(C)(CO)CO)cc2Cl)cccc1-c1cccc(OCCCNC[C@H](O)CO)c1Cl [Example 2097, (S)-5-((4-chloro-5-((2′-chloro-3′-(3-((2,3-dihydroxypropyl)amino)propoxy)-2-methyl-[1,1′-biphenyl]-3-yl)methoxy)-2-(((1,3-dihydroxy-2-methylpropan-2-yl)amino)methyl)phenoxy)methyl)nicotinonitrile]
0.21 to 10 |  | Cc1c(COc2cc(OCc3cncc(C#N)c3)c(CNC(C)(CO)CO)cc2Cl)cccc1-c1cccc(OCCCNC(C)(CO)CO)c1Cl [Example 2102, 5-((4-chloro-5-((2′-chloro-3′-(3-((1,3-dihydroxy-2-methylpropan-2-yl)amino)propoxy)-2-methyl-[1,1′-biphenyl]-3-yl)methoxy)-2-(((1,3-dihydroxy-2-methylpropan-2-yl)amino)methyl)phenoxy)methyl)nicotinonitrile]
0.21 to 10 |  | Cc1c(COc2cc(OCc3cncc(C#N)c3)c(CNC(C)(CO)CO)cc2Cl)cccc1-c1cccc(OCCCN2CC[C@@H](O)C2)c1Cl [Example 2104, (R)-5-((4-chloro-5-((2′-chloro-3′-(3-(3-hydroxypyrrolidin-1-yl)propoxy)-2-methyl-[1,1′-biphenyl]-3-yl)methoxy)-2-(((1,3-dihydroxy-2-methylpropan-2-yl)amino)methyl)phenoxy)methyl)nicotinonitrile]
